Where “and” joins values, the source holds several entries; their conditions need not be identical. Identical values can stand only once. Toxic doses and inconclusive results are not listed.
Tested on: P388 leukemia ip, CD2F1 mice, survival T/C
Experiment: NCI In Vivo Anticancer Drug Screen. Data for tumor model P388 Leukemia (intraperitoneal) in CD2F1 (CDF1) mice
Settings: endpoint: median survival time, higher = longer survival
In short: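 Mice carrying the transplanted tumor received test compound or vehicle. Survival was recorded in each group, and the value is the treated-group measurement divided by that of the vehicle-treated control group.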

[1] = dose: 50.0 mg/kg/injection, schedule: Q01DX009 (ip), vehicle: saline
[2] = dose: 100.0 mg/kg/injection, schedule: Q01DX009 (ip), vehicle: saline
[3] = dose: 60.0 mg/kg/injection, schedule: Q01DX005 (ip), vehicle: saline with Tween-80
[4] = dose: 120.0 mg/kg/injection, schedule: Q01DX005 (ip), vehicle: saline with Tween-80
[5] = dose: 240.0 mg/kg/injection, schedule: Q01DX005 (ip), vehicle: saline with Tween-80
[6] = dose: 50.0 mg/kg/injection, schedule: Q01DX005 (ip), vehicle: saline with Tween-80
[7] = dose: 50.0 mg/kg/injection, schedule: Q01DX009 (ip), vehicle: saline with Tween-80
[8] = dose: 100.0 mg/kg/injection, schedule: Q01DX009 (ip), vehicle: saline with Tween-80
[9] = dose: 200.0 mg/kg/injection, schedule: Q01DX009 (ip), vehicle: saline with Tween-80
[10] = dose: 100.0 mg/kg/injection, schedule: Q01DX001 (ip), vehicle: Klucel (hydroxypropylcellulose) (HPC)
[11] = dose: 200.0 mg/kg/injection, schedule: Q01DX001 (ip), vehicle: Klucel (hydroxypropylcellulose) (HPC)
[12] = dose: 25.0 mg/kg/injection, schedule: Q01DX009 (ip), vehicle: saline with Tween-80

## CC(N)P(=O)(O)O (stereo not drawn)
dose: 25.0 mg/kg/injection, schedule: Q01DX009 (ip), vehicle: saline
  T/C: 100 % of control
[1]
  T/C: 115 % of control
[2]
  T/C: 104 % of control and 87 % of control
dose: 200.0 mg/kg/injection, schedule: Q01DX009 (ip), vehicle: saline
  T/C: 106 % of control and 86 % of control

## CC1=C(C2CO2)C(=O)c2ccccc2C1=O (stereo not drawn)
dose: 1.56 mg/kg/injection, schedule: Q01DX005 (ip), vehicle: Klucel (hydroxypropylcellulose) (HPC)
  T/C: 104 % of control and 107 % of control
dose: 3.12 mg/kg/injection, schedule: Q01DX005 (ip), vehicle: Klucel (hydroxypropylcellulose) (HPC)
  T/C: 103 % of control and 104 % of control
dose: 6.25 mg/kg/injection, schedule: Q01DX005 (ip), vehicle: Klucel (hydroxypropylcellulose) (HPC)
  T/C: 99 % of control and 100 % of control and 94 % of control

## COC(=O)C1=NOC(Cc2ccccc2)C1 (stereo not drawn)
[3]
  T/C: 100 % of control
[4]
  T/C: 114 % of control
[5]
  T/C: 96 % of control

## CCN(C(=O)CCl)c1ccccc1C
dose: 50.0 mg/kg/injection, schedule: Q04DX003 (ip), vehicle: saline with Tween-80
  T/C: 100 % of control
dose: 100.0 mg/kg/injection, schedule: Q04DX003 (ip), vehicle: saline with Tween-80
  T/C: 100 % of control

## C=C1C[C@](OC)([C@H](O)C(=O)N[C@@H](OC)[C@@H]2C[C@@H](O)C(C)(C)[C@@H](C[C@@H](COC)OC)O2)O[C@H](C)[C@@H]1C
dose: 6.2 micrograms/kg/injection, schedule: Q01DX005 (ip), vehicle: Klucel (hydroxypropylcellulose) (HPC)
  T/C: 153 % of control
dose: 12.5 micrograms/kg/injection, schedule: Q01DX005 (ip), vehicle: Klucel (hydroxypropylcellulose) (HPC)
  T/C: 152 % of control
dose: 25.0 micrograms/kg/injection, schedule: Q01DX005 (ip), vehicle: Klucel (hydroxypropylcellulose) (HPC)
  T/C: 161 % of control and 162 % of control
dose: 50.0 micrograms/kg/injection, schedule: Q01DX005 (ip), vehicle: Klucel (hydroxypropylcellulose) (HPC)
  T/C: 152 % of control

## CC12CC(c3ccoc3)OC(=O)C1CCC13COC(=O)C1=CCCC32 (stereo not drawn)
dose: 0.25 mg/kg/injection, schedule: Q01DX009 (ip), vehicle: Klucel (hydroxypropylcellulose) (HPC)
  T/C: 96 % of control
dose: 0.5 mg/kg/injection, schedule: Q01DX009 (ip), vehicle: Klucel (hydroxypropylcellulose) (HPC)
  T/C: 88 % of control
dose: 1.0 mg/kg/injection, schedule: Q01DX009 (ip), vehicle: Klucel (hydroxypropylcellulose) (HPC)
  T/C: 90 % of control
dose: 2.0 mg/kg/injection, schedule: Q01DX009 (ip), vehicle: Klucel (hydroxypropylcellulose) (HPC)
  T/C: 114 % of control

## Cc1ccc2nc(N(C)C)[nH]c2c1
dose: 50.0 mg/kg/injection, schedule: Q01DX005 (ip), vehicle: other
  T/C: 105 % of control
dose: 100.0 mg/kg/injection, schedule: Q01DX005 (ip), vehicle: other
  T/C: 109 % of control

## S=C=Nc1ccc(-c2csc(Nc3ccnc4cc(Cl)ccc34)n2)cc1
dose: 12.5 mg/kg/injection, schedule: Q01DX005 (ip), vehicle: saline with Tween-80
  T/C: 101 % of control
dose: 25.0 mg/kg/injection, schedule: Q01DX005 (ip), vehicle: saline with Tween-80
  T/C: 98 % of control
[6]
  T/C: 99 % of control and 91 % of control
dose: 100.0 mg/kg/injection, schedule: Q01DX005 (ip), vehicle: saline with Tween-80
  T/C: 94 % of control

## CC(=O)N(C)c1ccc(N)c2c1C(=O)c1ccccc1C2=O
dose: 50.0 mg/kg/injection, schedule: Q01DX005 (ip), vehicle: Klucel (hydroxypropylcellulose) (HPC)
  T/C: 106 % of control
dose: 100.0 mg/kg/injection, schedule: Q01DX005 (ip), vehicle: Klucel (hydroxypropylcellulose) (HPC)
  T/C: 94 % of control
dose: 200.0 mg/kg/injection, schedule: Q01DX005 (ip), vehicle: Klucel (hydroxypropylcellulose) (HPC)
  T/C: 106 % of control

## CCCC#CC(=O)OC
[7]
  T/C: 97 % of control
[8]
  T/C: 100 % of control
[9]
  T/C: 106 % of control

## Cn1cnc2c(N(CCO)CCO)ncnc21
dose: 50.0 mg/kg/injection, schedule: Q01DX005 (ip), vehicle: distilled water + Tween-80 + alcohol
  T/C: 109 % of control
dose: 100.0 mg/kg/injection, schedule: Q01DX005 (ip), vehicle: distilled water + Tween-80 + alcohol
  T/C: 105 % of control
dose: 200.0 mg/kg/injection, schedule: Q01DX005 (ip), vehicle: distilled water + Tween-80 + alcohol
  T/C: 106 % of control

## CCOC(=O)C(=O)c1ccc(N(C)C)cc1
dose: 100.0 mg/kg/injection, schedule: Q01DX009 (ip), vehicle: Klucel (hydroxypropylcellulose) (HPC)
  T/C: 107 % of control
dose: 200.0 mg/kg/injection, schedule: Q01DX009 (ip), vehicle: Klucel (hydroxypropylcellulose) (HPC)
  T/C: 100 % of control
dose: 400.0 mg/kg/injection, schedule: Q01DX009 (ip), vehicle: Klucel (hydroxypropylcellulose) (HPC)
  T/C: 97 % of control

## [Se]=[Mo]=[Se]
[3]
  T/C: 96 % of control
[4]
  T/C: 95 % of control
[5]
  T/C: 97 % of control

## CCOC(=O)C12C(C(=O)OC)=CC(=O)NC1(OCC)OC(C)C2C (stereo not drawn)
dose: 50.0 mg/kg/injection, schedule: Q01DX001 (ip), vehicle: Klucel (hydroxypropylcellulose) (HPC)
  T/C: 94 % of control
[10]
  T/C: 89 % of control
[11]
  T/C: 89 % of control

## Cc1c(Cl)ccc2c1NC(=O)C2(O)CC(=O)c1ccccc1 (stereo not drawn)
dose: 60.0 mg/kg/injection, schedule: Q01DX005 (ip), vehicle: Klucel (hydroxypropylcellulose) (HPC)
  T/C: 99 % of control
dose: 120.0 mg/kg/injection, schedule: Q01DX005 (ip), vehicle: Klucel (hydroxypropylcellulose) (HPC)
  T/C: 97 % of control
dose: 240.0 mg/kg/injection, schedule: Q01DX005 (ip), vehicle: Klucel (hydroxypropylcellulose) (HPC)
  T/C: 99 % of control

## Cn1c(=O)[nH]c(N)c(C(=O)CCl)c1=O
[3]
  T/C: 97 % of control
[4]
  T/C: 105 % of control

## O=C1OC(OC/C(Br)=C(/Br)COC2OC(=O)C(Cl)=C2Cl)C(Cl)=C1Cl (stereo not drawn)
[3]
  T/C: 106 % of control
[4]
  T/C: 108 % of control

## O=C(O)C(Cc1c[nH]c2ccccc12)C(=O)NO (stereo not drawn)
dose: 60.0 mg/kg/injection, schedule: Q01DX005 (ip), vehicle: saline
  T/C: 97 % of control
dose: 120.0 mg/kg/injection, schedule: Q01DX005 (ip), vehicle: saline
  T/C: 97 % of control
dose: 240.0 mg/kg/injection, schedule: Q01DX005 (ip), vehicle: saline
  T/C: 94 % of control

## CCCCOC1OCN(CCC)CC1(C)C (stereo not drawn)
[7]
  T/C: 111 % of control and 113 % of control
[8]
  T/C: 122 % of control

## CC(=O)c1cc(-c2ccccn2)c(=O)n2ccccc12
dose: 12.5 mg/kg/injection, schedule: Q01DX009 (ip), vehicle: saline with Tween-80
  T/C: 105 % of control
[12]
  T/C: 99 % of control
[7]
  T/C: 100 % of control and 87 % of control

## CC(C)(C)c1cc2c(c(C(C)(C)C)c1)[O][Sb]([c]1ccccc1)([c]1ccccc1)([c]1ccccc1)[NH]2
[7]
  T/C: 110 % of control
[8]
  T/C: 115 % of control

## O=C1C(c2ccccc2)=C(c2ccc(Br)cc2)C2(c3ccc(Br)cc3)CC12c1ccccc1 (stereo not drawn)
dose: 50.0 mg/kg/injection, schedule: Q01DX005 (ip), vehicle: Klucel + Tween-80
  T/C: 91 % of control
dose: 100.0 mg/kg/injection, schedule: Q01DX005 (ip), vehicle: Klucel + Tween-80
  T/C: 88 % of control

## CC(C)SC1NC(=O)N(C)C1=O (stereo not drawn)
[7]
  T/C: 100 % of control
[8]
  T/C: 107 % of control
[9]
  T/C: 100 % of control

## ICCCCCCCCCC[n+]1ccc2ccccc2c1
[6]
  T/C: 107 % of control

## CCCCCC(=O)O[C@H]1CC[C@@H]2[C@H]1[C@@H]1CCC=C1C2(C)C
[10]
  T/C: 97 % of control
[11]
  T/C: 99 % of control
dose: 400.0 mg/kg/injection, schedule: Q01DX001 (ip), vehicle: Klucel (hydroxypropylcellulose) (HPC)
  T/C: 100 % of control

## C/C(=N\O)C(C)(O)C(C)(C)C (stereo not drawn)
[12]
  T/C: 103 % of control
[7]
  T/C: 86 % of control
[8]
  T/C: 93 % of control

## O=C1NC(=O)C2C(=O)NC(=O)C1C21CCc2ccccc21 (stereo not drawn)
[3]
  T/C: 97 % of control
[4]
  T/C: 86 % of control

## O=[N+]([O-])c1ccc(Nc2ccc[n+]3c([O-])csc23)nc1
[1]
  T/C: 98 % of control
[8]
  T/C: 89 % of control
[2]
  T/C: 102 % of control
[9]
  T/C: 93 % of control

## CCOC(=O)C1=C(Nc2ccc(Br)cc2)C(=O)N(CC)C1
[3]
  T/C: 109 % of control
[4]
  T/C: 100 % of control
[5]
  T/C: 106 % of control

## Cc1ccc(N2C(=O)CC3(CCCCC3)C2=O)cc1[N+](=O)[O-]
dose: 100.0 mg/kg/injection, schedule: Q04DX003 (ip), vehicle: Klucel (hydroxypropylcellulose) (HPC)
  T/C: 93 % of control
dose: 200.0 mg/kg/injection, schedule: Q04DX003 (ip), vehicle: Klucel (hydroxypropylcellulose) (HPC)
  T/C: 97 % of control
dose: 400.0 mg/kg/injection, schedule: Q04DX003 (ip), vehicle: Klucel (hydroxypropylcellulose) (HPC)
  T/C: 99 % of control

## COc1ccc(N=C(C2=C(O)c3ccccc3C2=O)c2ccccc2)cc1
dose: 100.0 mg/kg/injection, schedule: Q04DX002 (ip), vehicle: saline with Tween-80
  T/C: 101 % of control
dose: 200.0 mg/kg/injection, schedule: Q04DX002 (ip), vehicle: saline with Tween-80
  T/C: 101 % of control
dose: 400.0 mg/kg/injection, schedule: Q04DX002 (ip), vehicle: saline with Tween-80
  T/C: 97 % of control

Reference: PubChem BioAssay AID330 (DTP/NCI, 2004)
